Assay results taken from patent publication US11235976B2, “Nanocarbon-iron composite system as well as composition, preparation method and use thereof” (Chongqing Lummy Pharmaceutical Co., LTD, priority 2017, dated 2022).

System: murine liver cancer H22 cells
Experiment: Cell experiment, cell survival rate
Format: cell-based
Settings: iron preparation alone 1.71 μg/mL, 48 h
Procedure: (§1) Cells growing in a log phase are collected, the concentration of the cell suspension is adjusted, 100 μL of cell suspension is added to each well and the cells are plated (edge wells are filled with sterile PBS) at a density of 1×10^3-10^4 cells/well. The cells are incubated for 24 hours at 37° C. under the condition of 5% CO2, a nanocarbon-iron solution having a concentration gradient (nanocarbon content: 125, 62.5, 15.63 and 3.91 μg/mL; and ferric ion content: 13.65, 6.83, 1.71 and 0.43 μg/mL) is added, and three sub-wells are set. Then the cells are incubated for 48 hours at 37° C. under the condition of 5% CO2. 10 μL of CCK8 solution is added to each well and then the cells are continuously incubated for 2 hours. The absorbance of each well is measured at OD=450 nm with the microplate reader. In addition, a negative control group, nanocarbon control groups having the same concentration and iron preparation control groups having the same concentration are set.
as §1, with “and 1” for “100”, “of a 6-well plate” for “and the cells are plated (edge wells are filled with sterile PBS)”, “3×10^4” for “1×10^3-10^4”, “1.71,” for “1.71 and”, “The” for “10 μL of CCK8 solution is added to each well and then the”, “trypsinized and counted.” for “continuously incubated for 2 hours. The absorbance of each well is measured at OD=450 nm with the microplate reader.”

| Substance | Cell Survival Rate |
| --- | --- |
| ammonium ferric citrate | 97.64% |

Same assay, conditions: iron preparation alone 6.83 μg/mL, 48 h

| Substance | Cell Survival Rate |
| --- | --- |
| ammonium ferric citrate | 95.12% |

Same assay, conditions: iron preparation alone 13.65 μg/mL, 48 h

| Substance | Cell Survival Rate |
| --- | --- |
| ammonium ferric citrate | 100% |

System: HCT116 colon cancer cells
Experiment: Cell experiment, cell survival rate
Format: cell-based
Settings: iron preparation alone 0.43 μg/mL, 48 h
Procedure: as §1
as §1, with “and 1” for “100”, “of a 6-well plate” for “and the cells are plated (edge wells are filled with sterile PBS)”, “3×10^4” for “1×10^3-10^4”, “1.71,” for “1.71 and”, “The” for “10 μL of CCK8 solution is added to each well and then the”, “trypsinized and counted.” for “continuously incubated for 2 hours. The absorbance of each well is measured at OD=450 nm with the microplate reader.”

| Substance | Cell Survival Rate |
| --- | --- |
| ammonium ferric citrate | 97.31% |

Same assay, conditions: iron preparation alone 1.71 μg/mL, 48 h

| Substance | Cell Survival Rate |
| --- | --- |
| ammonium ferric citrate | 98.12% |

Same assay, conditions: iron preparation alone 6.83 μg/mL, 48 h

| Substance | Cell Survival Rate |
| --- | --- |
| ammonium ferric citrate | 94.03% |

Same assay, conditions: iron preparation alone 13.65 μg/mL, 48 h

| Substance | Cell Survival Rate |
| --- | --- |
| ammonium ferric citrate | 95.31% |

System: A549 lung cancer cells
Experiment: Cell experiment, cell survival rate
Format: cell-based
Settings: iron preparation alone 0.43 μg/mL, 48 h
Procedure: as §1
as §1, with “and 1” for “100”, “of a 6-well plate” for “and the cells are plated (edge wells are filled with sterile PBS)”, “3×10^4” for “1×10^3-10^4”, “1.71,” for “1.71 and”, “The” for “10 μL of CCK8 solution is added to each well and then the”, “trypsinized and counted.” for “continuously incubated for 2 hours. The absorbance of each well is measured at OD=450 nm with the microplate reader.”

| Substance | Cell Survival Rate |
| --- | --- |
| ammonium ferric citrate | 97.21% |

Same assay, conditions: iron preparation alone 1.71 μg/mL, 48 h

| Substance | Cell Survival Rate |
| --- | --- |
| ammonium ferric citrate | 99.64% |

Same assay, conditions: iron preparation alone 6.83 μg/mL, 48 h

| Substance | Cell Survival Rate |
| --- | --- |
| ammonium ferric citrate | 95.76% |

Same assay, conditions: iron preparation alone 13.65 μg/mL, 48 h

| Substance | Cell Survival Rate |
| --- | --- |
| ammonium ferric citrate | 94.67% |

System: TPC-1 thyroid cancer cells
Experiment: Cell experiment, cell survival rate
Format: cell-based
Settings: iron preparation alone 0.43 μg/mL, 48 h
Procedure: as §1
as §1, with “and 1” for “100”, “of a 6-well plate” for “and the cells are plated (edge wells are filled with sterile PBS)”, “3×10^4” for “1×10^3-10^4”, “1.71,” for “1.71 and”, “The” for “10 μL of CCK8 solution is added to each well and then the”, “trypsinized and counted.” for “continuously incubated for 2 hours. The absorbance of each well is measured at OD=450 nm with the microplate reader.”

| Substance | Cell Survival Rate |
| --- | --- |
| ammonium ferric citrate | 97.30% |

Same assay, conditions: iron preparation alone 1.71 μg/mL, 48 h

| Substance | Cell Survival Rate |
| --- | --- |
| ammonium ferric citrate | 96.41% |

Same assay, conditions: iron preparation alone 6.83 μg/mL, 48 h

| Substance | Cell Survival Rate |
| --- | --- |
| ammonium ferric citrate | 100% |

Same assay, conditions: iron preparation alone 13.65 μg/mL, 48 h

| Substance | Cell Survival Rate |
| --- | --- |
| ammonium ferric citrate | 100% |

System: MDA-MB-231 metastatic lymph nodes
Experiment: Lymph node metastasis inhibition experiment
Format: in vivo, nude mouse
Settings: popliteal lymph nodes
Procedure: (§2) Cells growing in a log phase are collected, the concentration of the cell suspension is adjusted to 3×10^7 cells/mL, the cell suspension is inoculated subcutaneously into the left hind foot pads of each nude mouse at the inoculation volume of 0.05 mL (about 1.5×10^6 cells) and thus a lymph node metastasis mouse model is obtained. The mice are treated when the diameter of the tumor reaches 6-8 mm and there is no ulcer and necrosis. The mice are randomly divided into four groups (10 mice per group): a negative control group (0.9% sodium chloride injection), a nanocarbon control group, an iron preparation control group and a nanocarbon-iron suspension experimental group. 10 days after inoculation, the mice are killed, and popliteal lymph nodes are collected, weighed and fixed for pathological examination.

| Substance | Weight of Lymph Node |
| --- | --- |
| ammonium ferric citrate | 46.97 ± 10.36 mg |

System: HCT116 metastatic lymph nodes
Experiment: Lymph node metastasis inhibition experiment
Format: in vivo, nude mouse
Settings: popliteal lymph nodes
Procedure: as §2

| Substance | Weight of Lymph Node |
| --- | --- |
| ammonium ferric citrate | 49.57 ± 20.67 mg |

System: TPC-1 metastatic lymph nodes
Experiment: Lymph node metastasis inhibition experiment
Format: in vivo, nude mouse
Settings: popliteal lymph nodes
Procedure: as §2

| Substance | Weight of Lymph Node |
| --- | --- |
| ammonium ferric citrate | 41.97 ± 20.12 mg |

System: Hela metastatic lymph nodes
Experiment: Lymph node metastasis inhibition experiment
Format: in vivo, nude mouse
Settings: popliteal lymph nodes
Procedure: as §2

| Substance | Weight of Lymph Node |
| --- | --- |
| ammonium ferric citrate | 30.94 ± 10.68 mg |

System: SKOV3 metastatic lymph nodes
Experiment: Lymph node metastasis inhibition experiment
Format: in vivo, nude mouse
Settings: popliteal lymph nodes
Procedure: as §2

| Substance | Weight of Lymph Node |
| --- | --- |
| ammonium ferric citrate | 32.98 ± 6.42 mg |

System: A549 metastatic lymph nodes
Experiment: Lymph node metastasis inhibition experiment
Format: in vivo, nude mouse
Settings: popliteal lymph nodes
Procedure: as §2

| Substance | Weight of Lymph Node |
| --- | --- |
| ammonium ferric citrate | 45.67 ± 10.68 mg |

System: SMMC-7721 metastatic lymph nodes
Experiment: Lymph node metastasis inhibition experiment
Format: in vivo, nude mouse
Settings: popliteal lymph nodes
Procedure: as §2

| Substance | Weight of Lymph Node |
| --- | --- |
| ammonium ferric citrate | 56.98 ± 17.59 mg |

System: SGC-7901 metastatic lymph nodes
Experiment: Lymph node metastasis inhibition experiment
Format: in vivo, nude mouse
Settings: popliteal lymph nodes
Procedure: as §2

| Substance | Weight of Lymph Node |
| --- | --- |
| ammonium ferric citrate | 43.69 ± 8.97 mg |

System: lymph node metastasis of 9 types of tumor cells
Experiment: Lymph node metastasis inhibition experiment, summary
Format: in vivo, mice
Settings: not given
Procedure: as §2
Milky white and thick ascites is extracted from the H22 tumor-bearing mice, the concentration is adjusted to be 3×10^7 cells/mL, 0.05 mL of cell suspension (about 1.5×10^6 cells) is inoculated subcutaneously into the left hind foot pads of each Kunming mouse, and thus a lymph node metastasis mouse model is obtained. The mice are treated when the diameter of the tumor reaches 6-8 mm and there is no ulcer and necrosis. The mice are randomly divided into four groups (10 mice per group): a negative control group (0.9% sodium chloride injection), a nanocarbon control group, an iron preparation control group and a nanocarbon-iron suspension experimental group. 10 days after inoculation, the mice are killed, and popliteal lymph nodes are collected, weighed and fixed for pathological examination.

| Substance | inhibition effect on the metastatic lymph nodes |
| --- | --- |
| ammonium ferric citrate | do not have an inhibition effect |
